Results: ChEMBL document CHEMBL5625205, “3-Methoxy-2-phenylimidazo[1,2-b]pyridazines highly active against Mycobacterium tuberculosis and Mycobacterium marinum” (Eur J Med Chem, 2023)
≈ marks a conversion by molar mass, not a printed value. Calls of active or inactive are those of the source. No cut-off for these calls is given here.

How the values were obtained:
[1] = test system: Mycobacterium tuberculosis; test: Antimycobacterial activity against Mycobacterium tuberculosis H37Ra assessed as inhibition of bacterial growth measured for 5 days by luminometer; assay type: functional; conditions: 120 h, time 5 day
Mycobacterium marinum = test: Antimycobacterial activity against Mycobacterium marinum assessed as inhibition of bacterial growth measured for 5 days by luminometer; assay type: functional; conditions: 120 h, time 5 day
[2] = test system: Mycobacterium tuberculosis; test: Antimycobacterial activity against Mycobacterium tuberculosis H37Ra infected in mouse assessed as reduction in relative light unit in lung at 10 mg/kg,po administrated once daily for 5 days; assay type: functional, organism-based; conditions: time 5.0 day
[3] = Octanol-water distribution coefficient, logD of the compound at pH 7.4 by HPLC analysis; assay type: physicochemical
[4] = Kinetic solubility of compound in DMSO at pH 2 incubated for 30 mins by laser nephelometry; assay type: physicochemical; conditions: read-out: Kinetic_solubility
[5] = Kinetic solubility of compound in DMSO at pH 6.5 incubated for 30 mins by laser nephelometry; assay type: physicochemical; conditions: read-out: Kinetic_solubility
[6] = Metabolic stability in mouse liver microsomes assessed as half life incubated for 60 mins in presence of NADPH; assay type: ADME, Microsome
[7] = Metabolic stability in mouse liver microsomes assessed as intrinsic clearance incubated for 60 mins in presence of NADPH; assay type: ADME, Microsome; conditions: read-out: CLH
[8] = test system: Mycobacterium tuberculosis; test: Antimycobacterial activity against Mycobacterium tuberculosis H37Ra infected in mouse assessed as reduction in relative light unit in lung at 30 to 300 mg/kg,po administrated once daily for 5 days; assay type: functional, organism-based; conditions: dose 30-300 mg/kg, time 5.0 day

SMILES	MIC90 [1] [µM]	MIC90 (Mycobacterium marinum) [µM]	further results
CO[C@H]1/C=C/O[C@@]2(C)Oc3c(C)c(O)c4c(O)c(c(/C=N/N5CCN(C)CC5)c(O)c4c3C2=O)NC(=O)/C(C)=C\C=C\[C@H](C)[C@H](O)[C@@H](C)[C@@H](O)[C@@H](C)[C@H](OC(C)=O)[C@@H]1C [RIFAMPIN]	0.073 (≈ 0.0601 µg/mL)	0.24 (≈ 0.198 µg/mL)	Activity [2]: Active
COc1cccc(CSc2ccc3nc(-c4ccc(Cl)c(Cl)c4)c(OC)n3n2)c1	> 220	> 220	
Oc1ccccc1-c1nc2ccc(SCc3ccccc3)nn2c1Br	243 (≈ 100 µg/mL)	243 (≈ 100 µg/mL)	
COc1ccc(CSc2ccc3nc(-c4ccccc4)c(OC)n3n2)cc1	5.3 (≈ 2 µg/mL)	5.3 (≈ 2 µg/mL)	
COc1cccc(CNc2ccc3nc(-c4ccc(F)cc4)c(OC)n3n2)c1	6.61 (≈ 2.5 µg/mL)	13.2 (≈ 4.99 µg/mL)	
COc1c(-c2ccccc2)nc2ccc(Cl)nn12	385 (≈ 100 µg/mL)		
CCOc1c(-c2ccccc2)nc2ccc(SCc3ccccc3)nn12	69.2 (≈ 25 µg/mL)	69.2 (≈ 25 µg/mL)	
COc1cccc(CSc2ccc3nc(-c4ccc(F)cc4)c(CN(C)C)n3n2)c1	23.7 (≈ 10 µg/mL)	47.3 (≈ 20 µg/mL)	
CN(Cc1ccccc1)c1ccc2nc(-c3ccc(C(F)(F)F)cc3)c(O)n2n1	> 251	251 (≈ 100 µg/mL)	
COc1c(-c2ccc(F)cc2F)nc2ccc(SCc3ccsc3)nn12	10.3 (≈ 4.01 µg/mL)	2.57 (≈ 1 µg/mL)	
CN(Cc1ccccc1)c1ccc2nc(-c3ccc(Br)cc3)c(O)n2n1	244 (≈ 99.9 µg/mL)	> 244	
COc1cccc(CSc2ccc3nc(-c4ccc(F)cc4F)c(OC)n3n2)c1	15.1 (≈ 6.24 µg/mL)	1.21 (≈ 0.5 µg/mL)	
COc1cccc(CSc2ccc3nc(-c4ccc(F)cc4F)c(CN4CCOCC4)n3n2)c1	207 (≈ 99.9 µg/mL)	207 (≈ 99.9 µg/mL)	
COCCOc1c(-c2ccccc2)nc2ccc(SCc3ccccc3)nn12	255 (≈ 99.8 µg/mL)	63.9 (≈ 25 µg/mL)	
c1ccc(CSc2ccc3nc(-c4ccccc4)cn3n2)cc1	> 315	> 315	
COc1cccc(CNc2ccc3nc(-c4ccc(C)cc4)c(OC)n3n2)c1	13.4 (≈ 5.02 µg/mL)	13.4 (≈ 5.02 µg/mL)	
COc1cccc(CSc2ccc3nc(-c4ccc(Br)cc4)c(OC)n3n2)c1	11 (≈ 5 µg/mL)	11 (≈ 5.02 µg/mL)	
CN(Cc1ccccc1)c1ccc2nc(-c3ccc(Cl)cc3)c(O)n2n1	274 (≈ 100 µg/mL)	> 274	
COc1cccc(CNc2ccc3nc(-c4ccccc4F)c(OC)n3n2)c1	6.61 (≈ 2.5 µg/mL)	6.61 (≈ 2.5 µg/mL)	

SMILES	MIC90 [1] [µM]	MIC90 (Mycobacterium marinum) [µM]	further results
COc1c(-c2ccccc2)nc2ccc(SCc3ccsc3)nn12	0.7 (≈ 0.247 µg/mL)	1.41 (≈ 0.498 µg/mL)	
COc1c(C)nc2ccc(Oc3ccccc3)nn12	> 117		
COc1cccc(COc2ccc3nc(-c4ccc(F)cc4)c(OC)n3n2)c1	2.64 (≈ 1 µg/mL)	2.64 (≈ 1 µg/mL)	
COc1c(-c2ccccc2)nc2ccc(OCc3ccccc3)nn12	3.02 (≈ 1 µg/mL)	1.51 (≈ 0.5 µg/mL)	
COc1ccc(CSc2ccc3nc(-c4ccc(Cl)c(Cl)c4)c(OC)n3n2)cc1	> 220	> 220	
COc1cccc(CSc2ccc3nc(-c4ccc(F)cc4)cn3n2)c1	27.4 (≈ 10 µg/mL)	2.74 (≈ 1 µg/mL)	
CN(Cc1ccccc1)c1ccc2nc(-c3ccc(F)cc3F)c(O)n2n1	273 (≈ 100 µg/mL)	> 273	
COc1c(-c2ccc(F)cc2)nc2ccc(SCc3ccsc3)nn12	26.9 (≈ 9.99 µg/mL)	5.38 (≈ 2 µg/mL)	
COc1c(-c2ccc(C(F)(F)F)cc2)nc2ccc(N(C)Cc3ccccc3)nn12	6.06 (≈ 2.5 µg/mL)	12.1 (≈ 4.99 µg/mL)	
CN(Cc1ccccc1)c1ccc2nc(-c3ccccc3)c(O)n2n1	303 (≈ 100 µg/mL)	> 303	
COc1cccc(CS(=O)(=O)c2ccc3nc(-c4ccc(F)cc4F)c(OC)n3n2)c1	225 (≈ 100 µg/mL)	225 (≈ 100 µg/mL)	
COc1c(-c2ccc(F)cc2F)nc2ccc(N(C)Cc3ccccc3)nn12	0.64 (≈ 0.243 µg/mL)	0.64 (≈ 0.243 µg/mL)	logD [3]: 4.6; solubility kinetic at 0.5 h [4]: 25 µg/mL (≈ 65.7 µM); solubility kinetic at 0.5 h [5]: 1.6 µg/mL (≈ 4.21 µM); half-life [6]: 8 min; microsomal CLint [7]: 215 µL/min/mg; Activity [8]: inactive
COc1c(Cc2ccccc2)nc2ccc(SCc3cccc(C)c3)nn12	87.9 (≈ 33 µg/mL)	26.6 (≈ 9.99 µg/mL)	
COc1cccc(CS(=O)(=O)c2ccc3nc(-c4ccc(F)cc4)c(OC)n3n2)c1	234 (≈ 100 µg/mL)	234 (≈ 100 µg/mL)	
Ic1c(-c2ccccc2)nc2ccc(OCc3ccccc3)nn12	> 230	> 230	
COc1c(-c2ccccc2)nc2ccc(SCc3ccccn3)nn12	5.74 (≈ 2 µg/mL)	2.87 (≈ 1 µg/mL)	
COc1c(-c2ccc(Br)cc2)nc2ccc(N(C)Cc3ccccc3)nn12	5.91 (≈ 2.5 µg/mL)	11.8 (≈ 5 µg/mL)	
COc1ccc(CSc2ccc3nc(-c4ccc(F)cc4)c(OC)n3n2)cc1	6.32 (≈ 2.5 µg/mL)	12.6 (≈ 4.98 µg/mL)	
CN(Cc1ccccc1)c1ccc2nc(-c3ccc(F)cc3)c(O)n2n1	144 (≈ 50.2 µg/mL)	144 (≈ 50.2 µg/mL)	
